Target: GCN2 kinase (Homo sapiens, UniProt Q9P2K8)
Test: GCN2 enzyme inhibition assay (Transcreener ADP2 fluorescence polarization)
Assay type: biochemical
Conditions: Enzyme activity for compounds of Formula IV; Ki(app), 280 μM ATP, 25° C.
Method in brief: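 4 nM GCN2 + 200 μM (RS)7 + compound (0–8 μM), 10 min preinc.; start with ATP (280 μM final); 1 h, 25 °C; pH 7.5 Tris/NaCl/MgCl2/DTT; ADP FP readout; IC50, Ki(app) via tight-binding fit.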

Sequence of GCN2 kinase (Q9P2K8 whole entry): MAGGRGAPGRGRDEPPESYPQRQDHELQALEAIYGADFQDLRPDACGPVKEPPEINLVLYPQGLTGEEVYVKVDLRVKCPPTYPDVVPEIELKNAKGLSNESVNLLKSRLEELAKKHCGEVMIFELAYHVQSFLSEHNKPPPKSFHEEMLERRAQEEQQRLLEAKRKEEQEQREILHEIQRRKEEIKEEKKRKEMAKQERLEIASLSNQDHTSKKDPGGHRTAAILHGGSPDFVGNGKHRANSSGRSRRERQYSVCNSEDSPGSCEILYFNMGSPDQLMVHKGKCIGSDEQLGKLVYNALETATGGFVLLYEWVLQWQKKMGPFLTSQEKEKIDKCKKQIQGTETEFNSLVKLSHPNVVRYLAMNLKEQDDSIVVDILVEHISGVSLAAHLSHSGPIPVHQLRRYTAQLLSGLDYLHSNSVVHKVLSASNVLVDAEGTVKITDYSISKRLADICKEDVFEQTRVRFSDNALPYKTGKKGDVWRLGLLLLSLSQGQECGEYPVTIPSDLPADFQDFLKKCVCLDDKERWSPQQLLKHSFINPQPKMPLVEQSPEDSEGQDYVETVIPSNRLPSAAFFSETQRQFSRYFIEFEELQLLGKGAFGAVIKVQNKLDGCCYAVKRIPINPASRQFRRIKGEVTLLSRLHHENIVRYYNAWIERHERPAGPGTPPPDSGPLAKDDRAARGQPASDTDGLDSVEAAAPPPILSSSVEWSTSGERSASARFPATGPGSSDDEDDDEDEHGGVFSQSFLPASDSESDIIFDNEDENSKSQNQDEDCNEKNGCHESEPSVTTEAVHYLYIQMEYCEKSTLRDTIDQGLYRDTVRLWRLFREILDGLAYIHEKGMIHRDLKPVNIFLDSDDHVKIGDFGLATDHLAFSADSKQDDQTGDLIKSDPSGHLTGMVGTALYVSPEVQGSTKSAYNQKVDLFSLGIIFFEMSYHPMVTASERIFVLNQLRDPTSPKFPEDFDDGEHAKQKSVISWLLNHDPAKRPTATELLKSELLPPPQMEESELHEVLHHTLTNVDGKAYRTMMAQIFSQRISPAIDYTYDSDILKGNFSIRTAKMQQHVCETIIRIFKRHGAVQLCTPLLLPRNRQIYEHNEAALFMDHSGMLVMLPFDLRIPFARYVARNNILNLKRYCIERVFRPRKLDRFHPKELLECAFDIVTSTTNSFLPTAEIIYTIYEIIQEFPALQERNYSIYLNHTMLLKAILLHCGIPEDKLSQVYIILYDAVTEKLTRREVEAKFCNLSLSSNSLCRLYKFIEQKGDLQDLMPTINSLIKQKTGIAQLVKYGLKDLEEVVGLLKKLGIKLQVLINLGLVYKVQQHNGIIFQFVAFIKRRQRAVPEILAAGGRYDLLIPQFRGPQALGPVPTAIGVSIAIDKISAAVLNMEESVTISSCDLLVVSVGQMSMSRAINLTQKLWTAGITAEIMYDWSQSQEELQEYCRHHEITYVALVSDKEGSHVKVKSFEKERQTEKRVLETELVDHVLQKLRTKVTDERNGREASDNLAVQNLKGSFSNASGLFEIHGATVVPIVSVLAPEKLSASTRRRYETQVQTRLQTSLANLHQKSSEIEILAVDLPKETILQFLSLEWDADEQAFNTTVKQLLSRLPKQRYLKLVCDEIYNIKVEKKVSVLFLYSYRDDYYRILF

SMILES	Ki
CC(=O)N1CCN(c2ccnc(-c3cnc4cnc(-c5cccnc5)cn34)n2)CC1 [IV-289, 1-(4-(2-(6-(Pyridin-3-yl)imidazo[1,2-a]pyrazin-3-yl)pyrimidin-4-yl)piperazin-1-yl)ethan-1-one]	100 to 1000 nM
CC(=O)N1CCN(c2ccnc(-c3cnc4cnc(-c5ccccc5)cn34)n2)CC1 [IV-297, 1-(4-(2-(6-Phenylimidazo[1,2-a]pyrazin-3-yl)pyrimidin-4-yl)piperazin-1-yl)ethan-1-one]	100 to 1000 nM
CC(=O)Nc1ccc(-c2cn3c(-c4nccc(N5CCN(C(C)=O)CC5)n4)cnc3cn2)cc1 [IV-298, N-(4-(3-(4-(4-Acetylpiperazin-1-yl)pyrimidin-2-yl)imidazo[1,2-a]pyrazin-6-yl)phenyl)acetamide]	100 to 1000 nM
CC(=O)N1CCN(c2ccnc(-c3cnc4cnc(-c5c[nH]nc5C)cn34)n2)CC1 [IV-300, 1-(4-(2-(6-(3-Methyl-1H-pyrazol-4-yl)imidazo[1,2-a]pyrazin-3-yl)pyrimidin-4-yl)piperazin-1-yl)ethan-1-one]	100 to 1000 nM
CC(=O)N1CCN(c2ccnc(-c3cnc4cnc(-c5ccccc5C#N)cn34)n2)CC1 [IV-301, 2-(3-(4-(4-Acetylpiperazin-1-yl)pyrimidin-2-yl)imidazo[1,2-a]pyrazin-6-yl)benzonitrile]	100 to 1000 nM
CC(=O)N1CCN(c2ccnc(-c3cnc4cnc(-c5ccc(CO)cc5)cn34)n2)CC1 [IV-302, 1-(4-(2-(6-(4-(Hydroxymethyl)phenyl)imidazo[1,2-a]pyrazin-3-yl)pyrimidin-4-yl)piperazin-1-yl)ethan-1-one]	100 to 1000 nM
CC(=O)N1CCN(c2ccnc(-c3cnc4cnc(-c5ccc(C(N)=O)cc5)cn34)n2)CC1 [IV-303, 4-(3-(4-(4-Acetylpiperazin-1-yl)pyrimidin-2-yl)imidazo[1,2-a]pyrazin-6-yl)benzamide]	100 to 1000 nM
CC(=O)N1CCN(c2ccnc(-c3cnc4cnc(-c5cn(C)nc5C)cn34)n2)CC1 [IV-307, 1-(4-(2-(6-(1,3-Dimethyl-1H-pyrazol-4-yl)imidazo[1,2-a]pyrazin-3-yl)pyrimidin-4-yl)piperazin-1-yl)ethan-1-one]	100 to 1000 nM
CC(=O)N1CCN(c2ccnc(-c3cnc4cnc(-c5cccc(CO)c5)cn34)n2)CC1 [IV-308, 1-(4-(2-(6-(3-(Hydroxymethyl)phenyl)imidazo[1,2-a]pyrazin-3-yl)pyrimidin-4-yl)piperazin-1-yl)ethan-1-one]	100 to 1000 nM
CC1CCN(c2ccnc(-c3cnc4cnc(C(F)(F)F)cn34)n2)CC1n1ccnc1 (stereo not shown) [IV-319, 3-(4-(3-(1H-Imidazol-1-yl)-4-methylpiperidin-1-yl)pyrimidin-2-yl)-6-(trifluoromethyl)imidazo[1,2-a]pyrazine]	100 to 1000 nM
CC1CCN(c2ccnc(-c3cnc4cnc(C(F)(F)F)cn34)n2)CC1n1ccnc1 (stereo not shown) [IV-320, 3-(4-(3-(1H-Imidazol-1-yl)-4-methylpiperidin-1-yl)pyrimidin-2-yl)-6-(trifluoromethyl)imidazo[1,2-a]pyrazine]	100 to 1000 nM
FC(F)(F)c1cn2c(-c3nccc(N4CCCC(c5ncon5)C4)n3)cnc2cn1 (stereo not shown) [IV-321, 3-(1-(2-(6-(Trifluoromethyl)imidazo[1,2-a]pyrazin-3-yl)pyrimidin-4-yl)piperidin-3-yl)-1,2,4-oxadiazole]	100 to 1000 nM
FC(F)(F)c1cn2c(-c3nccc(N4CCCC(c5ncno5)C4)n3)cnc2cn1 (stereo not shown) [IV-322, 5-(1-(2-(6-(Trifluoromethyl)imidazo[1,2-a]pyrazin-3-yl)pyrimidin-4-yl)piperidin-3-yl)-1,2,4-oxadiazole]	100 to 1000 nM
FC(F)(F)c1cn2c(-c3nccc(N4CCCC(c5nnc[nH]5)C4)n3)cnc2cn1 (stereo not shown) [IV-326, 3-(4-(3-(4H-1,2,4-Triazol-3-yl)piperidin-1-yl)pyrimidin-2-yl)-6-(trifluoromethyl)imidazo[1,2-a]pyrazine]	100 to 1000 nM
FC(F)(F)c1cn2c(-c3nccc(N4CCCC(c5nn[nH]n5)C4)n3)cnc2cn1 (stereo not shown) [IV-331, 3-(4-(3-(2H-Tetrazol-5-yl)piperidin-1-yl)pyrimidin-2-yl)-6-(trifluoromethyl)imidazo[1,2-a]pyrazine]	100 to 1000 nM
O=CNC1CCCN(c2ccnc(-c3cnc4cnc(C(F)(F)F)cn34)n2)C1 (stereo not shown) [IV-332, N-(1-(2-(6-(trifluoromethyl)imidazo[1,2-a]pyrazin-3-yl)pyrimidin-4-yl)piperidin-3-yl)formamide]	100 to 1000 nM
CC1CN(c2nccc(-c3cnc4cnc(Cl)cn34)n2)C(C)C(c2cn[nH]c2)N1 (stereo not shown) [IV-382, 6-Chloro-3-(2-(2,5-dimethyl-3-(1H-pyrazol-4-yl)piperazin-1-yl)pyrimidin-4-yl)imidazo[1,2-a]pyrazine]	10 to 100 nM
CC1CN(c2nccc(-c3cnc4cnc(Br)cn34)n2)C(C)C(c2cn[nH]c2)N1 (stereo not shown) [IV-383, 6-Bromo-3-(2-(2,5-dimethyl-3-(1H-pyrazol-4-yl)piperazin-1-yl)pyrimidin-4-yl)imidazo[1,2-a]pyrazine]	10 to 100 nM
FC(F)(F)c1cn2c(-c3nccc(N4CCCC4)n3)cnc2cn1 [IV-428, 3-(4-(Pyrrolidin-1-yl)pyrimidin-2-yl)-6-(trifluoromethyl)imidazo[1,2-a]pyrazine]	100 to 1000 nM
FC(F)(F)c1cn2c(-c3nccc(N4CCCCCC4)n3)cnc2cn1 [IV-429, 3-(4-(Azepan-1-yl)pyrimidin-2-yl)-6-(trifluoromethyl)imidazo[1,2-a]pyrazine]	100 to 1000 nM
OCCn1cc(-c2ccnc(-c3cnc4cnc(C(F)(F)F)cn34)n2)cn1 [IV-431, 2-(4-(2-(6-(Trifluoromethyl)imidazo[1,2-a]pyrazin-3-yl)pyrimidin-4-yl)-1H-pyrazol-1-yl)ethan-1-ol]	100 to 1000 nM
NC(=O)CC1CCN(c2ccnc(-c3cnc4cnc(C(F)(F)F)cn34)n2)C1 (stereo not shown) [IV-432, 2-(1-(2-(6-(Trifluoromethyl)imidazo[1,2-a]pyrazin-3-yl)pyrimidin-4-yl)pyrrolidin-3-yl)acetamide]	100 to 1000 nM
OC1CCN(c2ccnc(-c3cnc4cnc(C(F)(F)F)cn34)n2)C1 (stereo not shown) [IV-433, 1-(2-(6-(Trifluoromethyl)imidazo[1,2-a]pyrazin-3-yl)pyrimidin-4-yl)pyrrolidin-3-ol]	100 to 1000 nM
OCC1CCN(c2ccnc(-c3cnc4cnc(C(F)(F)F)cn34)n2)C1 (stereo not shown) [IV-434, (1-(2-(6-(Trifluoromethyl)imidazo[1,2-a]pyrazin-3-yl)pyrimidin-4-yl)pyrrolidin-3-yl)methanol]	100 to 1000 nM

More lines, now with the values ahead:

Ki	SMILES
10 to 100 nM	O=C1CCCC2CN(c3ccnc(-c4cnc5cnc(Cl)cn45)n3)CCN12 (stereo not shown) [IV-286, 2-(2-(6-Chloroimidazo[1,2-a]pyrazin-3-yl)pyrimidin-4-yl)octahydro-6H-pyrido[1,2-c]pyrazin-6-one]
< 10 nM	CCN1C(C)CN(c2ccnc(-c3cnc4cnc(C(F)(F)F)cn34)n2)C(C)C1c1cn[nH]c1 (stereo not shown) [IV-292, 3-(4-(4-Ethyl-2,5-dimethyl-3-(1H-pyrazol-4-yl)piperazin-1-yl)pyrimidin-2-yl)-6-(trifluoromethyl)imidazo[1,2-a]pyrazine]
10 to 100 nM	CCOc1cccc(-c2cn3c(-c4nccc(N5CCN(C(C)=O)CC5)n4)cnc3cn2)c1 [IV-299, 1-(4-(2-(6-(3-Ethoxyphenyl)imidazo[1,2-a]pyrazin-3-yl)pyrimidin-4-yl)piperazin-1-yl)ethan-1-one]
< 10 nM	CC1CC(c2cn[nH]c2)C(C)N(c2ccnc(-c3cnc4cnc(C(F)(F)F)cn34)n2)C1 (stereo not shown) [IV-304, 3-(4-(2,5-Dimethyl-3-(1H-pyrazol-4-yl)piperidin-1-yl)pyrimidin-2-yl)-6-(trifluoromethyl)imidazo[1,2-a]pyrazine]
10 to 100 nM	CC(=O)N1CCN(c2ccnc(-c3cnc4cnc(-c5cccc(O)c5)cn34)n2)CC1 [IV-309, 1-(4-(2-(6-(3-Hydroxyphenyl)imidazo[1,2-a]pyrazin-3-yl)pyrimidin-4-yl)piperazin-1-yl)ethan-1-one]
10 to 100 nM	FC(F)(F)c1cn2c(-c3nccc(N4CCCC(c5ccno5)C4)n3)cnc2cn1 (stereo not shown) [IV-317, 5-(1-(2-(6-(Trifluoromethyl)imidazo[1,2-a]pyrazin-3-yl)pyrimidin-4-yl)piperidin-3-yl)isoxazole]
10 to 100 nM	FC(F)(F)c1cn2c(-c3nccc(N4CCCC(c5c[nH]cn5)C4)n3)cnc2cn1 (stereo not shown) [IV-325, 3-(4-(3-(1H-Imidazol-4-yl)piperidin-1-yl)pyrimidin-2-yl)-6-(trifluoromethyl)imidazo[1,2-a]pyrazine]
10 to 100 nM	CC1(C)CN(c2ccnc(-c3cnc4cnc(C(F)(F)F)cn34)n2)CC(c2cn[nH]c2)N1 (stereo not shown) [IV-327, 3-(4-(3,3-Dimethyl-5-(1H-pyrazol-4-yl)piperazin-1-yl)pyrimidin-2-yl)-6-(trifluoromethyl)imidazo[1,2-a]pyrazine]
10 to 100 nM	CC(C)C1CN(c2ccnc(-c3cnc4cnc(C(F)(F)F)cn34)n2)C(C)C(c2cn[nH]c2)N1 (stereo not shown) [IV-330, 3-(4-(5-Isopropyl-2-methyl-3-(1H-pyrazol-4-yl)piperazin-1-yl)pyrimidin-2-yl)-6-(trifluoromethyl)imidazo[1,2-a]pyrazine]
10 to 100 nM	Brc1cn2c(-c3nccc(N4CCNC(c5c[nH]cn5)C4)n3)cnc2cn1 (stereo not shown) [IV-348, 3-(4-(3-(1H-Imidazol-4-yl)piperazin-1-yl)pyrimidin-2-yl)-6-bromoimidazo[1,2-a]pyrazine]
< 10 nM	Cc1nc(C2=CCCN(c3ccnc(-c4cnc5cnc(Br)cn45)n3)C2)c[nH]1 [IV-356, 6-Bromo-3-(4-(5-(2-methyl-1H-imidazol-4-yl)-3,6-dihydropyridin-1(2H)-yl)pyrimidin-2-yl)imidazo[1,2-a]pyrazine]
< 10 nM	CC1C(c2cn[nH]c2)OCCN1c1nccc(-c2cnc3cnc(C(F)(F)F)cn23)n1 (stereo not shown) [IV-417, 3-Methyl-2-(1H-pyrazol-4-yl)-4-(4-(6-(trifluoromethyl)imidazo[1,2-a]pyrazin-3-yl)pyrimidin-2-yl)morpholine]
< 10 nM	Fc1n[nH]cc1C1=CCCN(c2ccnc(-c3cnc4cnc(C(F)(F)F)cn34)n2)C1 [IV-430, 3-(4-(5-(3-Fluoro-1H-pyrazol-4-yl)-3,6-dihydropyridin-1(2H)-yl)pyrimidin-2-yl)-6-(trifluoromethyl)imidazo[1,2-a]pyrazine]
